# In patent publication US8309599B2, “Synthesis of FR901464 and analogs with antitumor activity” (University of Pittsburgh-Of The Commonwealth System of …, priority 2006, dated 2012):
# Like-named read-outs stand apart in the source and are kept apart here.
# Experiments:
# A549 = format: cell-based; conditions: Homo sapiens; A549, 3 to 5 days
# HeLa = format: cell-based; conditions: Homo sapiens, 3 to 5 days
# MDA-MB-231 = format: cell-based; conditions: Homo sapiens; MDA-MB-231, 3 to 5 days
# MCF-7 [1] = assay: cells; conditions: Homo sapiens, MCF7
# H1299 = format: cell-based; conditions: Homo sapiens, NCI-H1299; H1299, 3 to 5 days
# HCT116 = format: cell-based; conditions: Homo sapiens, HCT-116; HCT116, 3 to 5 days
# DU145 = format: cell-based; conditions: Homo sapiens, DU-145; DU145, 3 to 5 days
# PC-3 = format: cell-based; conditions: Homo sapiens; PC-3, 3 to 5 days
# MCF-7 cells [2] = conditions: read-out: LC50 (apparent apoptosis); cited from earlier work
# [3] = mouse model; cited from earlier work
# HeLa cells [4] = assay: High-content analysis of mitotic arrest and microtubule perturbation; format: cell-based; conditions: HeLa cells treated for 21 h
# [5] = tested on: mRNA levels of p53, p21, c-myc, and E2F-1; conditions: MCF-7 cells at 20 nM; cited from earlier work
# [6] = tested on: DC3F transformed Chinese hamster cells; assay: Antiproliferative activity in parental cells; format: cell-based; conditions: for GI50: Cricetulus griseus, DC3F, read-out: average GI50 DC3F; for growth inhibition of parental DC3F cells: in words
# MCF-7 cells [7] = assay: MCF-7 cell count with hemacytometer and trypan blue; conditions: for viability at 0.01 µM: Homo sapiens; for percent of cells present: 200 nM positive control
# Procedure: MCF-7 cells were used in this experiment.
# Cell proliferation was measured by manual counting using a hemacytometer by trypsinizing and staining with trypan blue.
# MCF-7 [8] = conditions: MCF-7, 5-day assay
# [9] = tested on: IMR-90 human lung fibroblasts; assay: High-content selectivity study, normal cells
# A-549 lung cancer cells = assay: High-content selectivity study, cancer cells
# HeLa cells [10] = assay: Reversibility test (drug washout, MTS); format: cell-based; conditions: preliminary result
# Procedure: (§1) One concentration was used in each experiment for all times examined. […] At the desired time intervals, the media containing the drug was removed, the wells were washed 5 times with new media and 200 μL of new media containing 1% DMSO was added.
# (§2) All cells were treated at the same time meayamycin at 1 nM concentration. At the given time interval, the drug-containing media was removed and replaced with fresh media. Cell proliferation was measured at the last time interval (72 h).
# MCF-7 cells [11] = assay: Reversibility test (drug washout, MTS); format: cell-based; conditions: 1 nM, washout at intervals, read at 72 h
# Procedure: as §1, §2
# A549 cells = assay: Reversibility test (drug washout, MTS); format: cell-based; conditions: 1 nM, washout at intervals, read at 72 h
# Procedure: as §1, §2
# [12] = tested on: multidrug resistant subline VCRd5L; assay: Antiproliferative activity in multidrug resistant cells; format: cell-based, Chinese hamster; conditions: for GI50: Cricetulus griseus, read-out: average GI50 VCRd5L
# [13] = MCF7, 24 h, read-out: Percent Viable Cells, 10 nM, 24 hours
# [14] = MCF7, 48 h, read-out: Percent Viable Cells, 10 nM, 48 hours
structure (smiles),measurement,setting,value
CC(/C=C/[C@H]1OC(C)(C)C[C@@]2(CO2)[C@@H]1O)=C\C[C@@H]1O[C@H](C)[C@H](NC(=O)/C=C\[C@H](C)O)C[C@@H]1C [4′-desacetyl meayamycin],GI50,A549,0.74 nM
same,GI50,HeLa,1 nM
same,GI50,MDA-MB-231,0.35 nM
same,GI50,MCF-7 [1],0.48 nM
same,GI50,H1299,1 nM
CC(=O)O[C@@H](C)/C=C\C(=O)N[C@@H]1CC[C@H](C/C=C(C)/C=C/[C@H]2OC(C)(C)C[C@@]3(CO3)[C@@H]2O)O[C@@H]1C [12-desmethyl meayamycin],GI50,A549,1 nM
same,GI50,HCT116,2.2 nM
same,GI50,DU145,3.5 nM
same,GI50,MDA-MB-231,0.7 nM
same,GI50,PC-3,1.6 nM
same,GI50,MCF-7 [1],0.3 nM
same,GI50,H1299,2.8 nM
CC(=O)O[C@@H](C)/C=C\C(=O)N[C@@H]1C[C@H](C)[C@H](C/C=C(C)/C=C/[C@H]2O[C@](C)(O)C[C@@]3(CO3)[C@@H]2O)O[C@@H]1C [FR901464],CC50,MCF-7 cells [2],0.5 nM
same,"antitumor activity, active dose",[3],0.056 to 0.18 mg/kg
same,mitotic arrest,HeLa cells [4],neither FR 901464 nor meayamycin were mitotic arresters
same,"mRNA levels of p53, p21, c-myc, and E2F-1",[5],lowers the mRNA levels
same,GI50,[6],7.49 ± 1.26 nM
same,growth inhibition of parental DC3F cells,[6],potently inhibited the growth
same,viability at 0.01 µM,MCF-7 cells [7]; [13],81%
same,viability at 0.01 µM,MCF-7 cells [7]; [14],49%
CC(=O)O[C@@H](C)/C=C\C(=O)N[C@@H]1CO[C@H](C/C=C(C)/C=C/[C@H]2OC(C)(C)C[C@@]3(CO3)[C@@H]2O)O[C@@H]1C [acetal meayamycin],GI50,MCF-7 [1],2.5 nM
"CC(/C=C/[C@H]1OC(C)(C)C[C@@]2(CO2)[C@@H]1O)=C\C[C@@H]1O[C@H](C)[C@H](NC(=O)/C=C\[C@H](C)OC(=O)N2CCOCC2)C[C@@H]1C [meayamycin B, (2Z,4S)-4-[(morpholinylcarbonyl)oxy]-N-[(2R,3R,5S,6S)-tetrahydro-6-[(2E,4E)-5-[(3R,4R,5R)-4-hydroxy-7,7-dimethyl-1,6-dioxaspiro[2.5]oct-5-yl]-3-methyl-2,4-pentadien-1-yl]-2,5-dimethyl-2H-pyran-3-yl]-2-pentenamide]",times more potent than meayamycin in cultured cells,MCF-7 [8],2 times
CC(=O)O[C@@H](C)/C=C\C(=O)N[C@@H]1C[C@H](C)[C@H](C/C=C(C)/C=C/[C@H]2OC(C)(C)C[C@@]3(CO3)[C@@H]2O)O[C@@H]1C [meayamycin],p53 induction,[9]; 24 h,magnitude of response was smaller
same,growth inhibition of normal lung cells (IMR-90),[9]; FIG. 5,only mildly
same,GI50,A549,0.11 nM
same,GI50,HCT116,0.044 nM
same,GI50,HeLa,0.24 nM
same,cell loss,"A-549 lung cancer cells; 10 nM, 24 hours, compared with normal cells",more pronounced cell loss
same,nuclear morphology,A-549 lung cancer cells; 24 h,did not cause nuclear fragmentation but instead enlarged nuclei
same,p53 induction,A-549 lung cancer cells; 24 h,p53 induction
same,caspase cleavage,"A-549 lung cancer cells; 24 h, some experiments",low level of caspase cleavage
same,growth inhibition of A549 cells,A-549 lung cancer cells; FIG. 4,inhibits the growth of A549 cells
same,reversibility of growth inhibition,HeLa cells [10],reversibly inhibits the growth
same,reversibility of growth inhibition,MCF-7 cells [11],irreversibly inhibits the growth
same,reversibility of growth inhibition,A549 cells,irreversibly inhibits the growth
same,mitotic arrest,HeLa cells [4],neither FR 901464 nor meayamycin were mitotic arresters
same,GI50,DU145,0.47 nM
same,GI50,MDA-MB-231,0.024 nM
same,GI50,PC-3,0.058 nM
same,GI50,MCF-7 [1],0.01 nM
same,GI50,H1299,0.091 nM
same,activity in the multidrug resistant cells,[12],retained picomolar activity
same,fold resistance,[12],1.5 fold
same,GI50,[12],0.71 ± 0.27 nM
same,GI50,[6],0.46 ± 0.09 nM
same,growth inhibition of parental DC3F cells,[6],active in the subnanomolar range
same,Percent Viable Cells,"MCF-7 cells [7]; 10 nM, 48 hours, listed as Compound IX, 0.01 µM",26%
same,viability at 0.01 µM,MCF-7 cells [7]; [13],46%
same,viability at 0.01 µM,MCF-7 cells [7]; [14],27%
CC(=O)O[C@H]1C(=O)[C@@]2(C)[C@H]([C@H](OC(=O)c3ccccc3)[C@]3(O)C[C@H](OC(=O)[C@H](O)[C@@H](NC(=O)c4ccccc4)c4ccccc4)C(C)=C1C3(C)C)[C@]1(OC(C)=O)CO[C@@H]1C[C@@H]2O [paclitaxel],mitotic arrest,HeLa cells [4],caused mitotic arrest
same,fold resistant (VCRd-5L cells),[12],60 fold
same,GI50,[12]; average ± SD (n),2680 ± 109 nM
same,GI50,[6]; average ± SD (n),45.4 ± 11.3 nM
same,percent of cells present,MCF-7 cells [7]; 24 hour,70%
same,percent of cells present,MCF-7 cells [7]; 48 hour,52%
CC[C@]1(O)C[C@H]2CN(CCc3c([nH]c4ccccc34)[C@@](C(=O)OC)(c3cc4c(cc3OC)N(C=O)[C@H]3[C@@](O)(C(=O)OC)[C@H](OC(C)=O)[C@]5(CC)C=CCN6CC[C@]43[C@@H]65)C2)C1 [vincristine],mitotic arrest,HeLa cells [4],caused mitotic arrest
same,fold resistant (VCRd-5L cells),[12],> 250 fold
same,GI50,[12]; average ± SD (n),> 5000 nM
same,GI50,[6]; average ± SD (n),18.8 ± 16.2 nM
